Reference: US20250136722A1, “CYTOTOXICITY TARGETING CHIMERAS” (GLAXOSMITHKLINE INTELLECTUAL PROPERTY DEVELOPMENT LIMITED, priority 2021, published 2025)
Several values for one entry are separate records, joined by “and”; a condition that tells them apart may be missing. Equal values may be shown once.

Tests used:
[1] = molecular target: T1, CHOK1 cells engineered to overexpress human CCR2 (Homo sapiens, UniProt P41597); assay: Antibody dependent cellular cytotoxicity (ADCC) reporter assay (Example 199); format: cell-based; conditions: with anti-cotinine antibody SEQ ID NO: 11/12; CHOK1-human CCR2 target cells, Jurkat FcγRIIIa NFAT-luciferase reporter cells; 12-18 hours; read-out: ADCC Reporter Assay pEC50 (converted)
T1 construct: expressed in transfected cells; host or cells: CHOK1 cells
In short: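 CHOK1-hCCR2 target cells are co-incubated for 12–18 h with Jurkat FcγRIIIa/NFAT-luciferase reporter cells, ARM compound (1 pM–10 μM) and anti-cotinine antibody with a DE-mutant human IgG1 Fc (0.01–200 μg/mL). Luminescence is expressed as signal:background against no-compound wells; EC50 comes from nonlinear fit and is reported as pEC50, averaged across runs.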

[2] = molecular target: Anti-cotinine antibody (SEQ ID NO: 11 / SEQ ID NO: 12, rabbit variable region with human IgG1 Fc domain); assay: Binding of anti-cotinine antibody to ARM compounds by SPR, Biacore T200, 37° C. (Example 202); conditions: pH 7.4, rabbit variable region/human IgG1 Fc antibody captured on protein A
Method: Anti-cotinine antibodies having a heavy chain sequence of SEQ ID NO: 11 and a light chain sequence of SEQ ID NO: 12 (rabbit variable region with human IgG1 Fc domain containing a DE mutation (S239D/1332E)) were captured on one or more flow cells of a protein A sensor chip (Cytiva) using a Biacore T200 while reserving flow cell 1 as a reference. Following capture, a 3000 second wait step was included to reduce drift during compound analysis. ARM compounds of Formula (I) were then injected at 100 μL/min with 200 and 2000 second association and dissociation times. The entire experiment was run at 37° C. with running buffer containing 10 mM HEPES pH 7.4, 150 mM NaCl, 0.005% P20 and 1% DMSO. ARM compounds of Formula (I) were titrated with a top concentration of 200 nM using a 3-fold 5-point dilution series and a corresponding 5-injection buffer cycle was run for blank subtraction. Data were double referenced by subtracting the response of the reference flow cell from that of the antibody-containing flow cell and subsequently subtracting the referenced blank sensorgrams. Following compound analysis, the surface was regenerated using a 30 second injection of pH 1.5 glycine at a flow rate of 30 μL/min after which antibody was re-captured. The experiment was run using Biacore T200 control software and evaluated using Biacore T200 Evaluation software. Curves were fit with a 1:1 kinetic binding model to obtain kon(1/Ms), koff(1/s), Kd (M) determined as koff/kon, and residence time determined as 1/koff. (s).
Anti-cotinine antibody was tested for binding to ARMs compounds of Formula (I) of the invention in the above assay in or more experimental runs and the results are shown in Table 5 below. Affinity is reported as a pKd value. The pKd value is the negative log of the Kd value, wherein the Kd value is the dissociation constant measured in molar (M) as noted above. For compounds tested in more than one experimental run, the pKd value is reported as an average.

Row | pKd of Antibody for ARM Compound of Formula (I) [2] | Structure (SMILES) | EC50 [1]
1 | 9.0755 | CC(C)N(C)[C@@H]1CC[C@H](N2CC[C@H](Nc3ncnc4ccc(C(F)(F)F)cc34)C2=O)[C@H](NC(=O)COCCNC(=O)COCCNC(=O)CCOCCNC(=O)[C@H]2CC(=O)N(C)[C@@H]2c2cccnc2)C1 [Example 151, (2S,3S)-N-(1-(((1R,2S,5R)-5-(Isopropyl(methyl)amino)-2-((S)-2-oxo-3-((6-(trifluoromethyl)quinazolin-4-yl)amino)pyrrolidin-1-yl)cyclohexyl)amino)-1,7,13-trioxo-3,9,16-trioxa-6,12-diazaoctadecan-18-yl)-1-methyl-5-oxo-2-(pyridin-3-yl)pyrrolidine-3-carboxamide] | 3.03 nM
2 | 10.135 | CC(C)N(C)[C@@H]1CC[C@H](N2CC[C@H](Nc3ncnc4ccc(C(F)(F)F)cc34)C2=O)[C@H](NC(=O)C2CCN(C3CCN(C(=O)CCCCCCCCCNC(=O)[C@@H]4CC(=O)N(C)[C@H]4c4cccnc4)CC3)CC2)C1 [Example 157] | 0.2 nM
3 | 9.07 | CC(C)N(C)[C@@H]1CC[C@H](N2CC[C@H](Nc3ncnc4ccc(C(F)(F)F)cc34)C2=O)[C@H](NC(=O)CCOCCNC(=O)COCCNC(=O)CCOCCNC(=O)[C@H]2CC(=O)N(C)[C@@H]2c2cccnc2)C1 [Example 163, (2S,3S)-N-(19-(((1R,2S,5R)-5-(Isopropyl(methyl)amino)-2-((S)-2-oxo-3-((6-(trifluoromethyl)quinazolin-4-yl)amino)pyrrolidin-1-yl)cyclohexyl)amino)-6,12,19-trioxo-3,10,16-trioxa-7,13-diazanonadecyl)-1-methyl-5-oxo-2-(pyridin-3-yl)pyrrolidine-3-carboxamide] | 0.631 nM
4 | 9.3225 | CC(C)N(C)[C@@H]1CC[C@H](N2CC[C@H](Nc3ncnc4ccc(C(F)(F)F)cc34)C2=O)[C@H](NC(=O)CCCNc2c(NCCOCCOCCOCCOCCNC(=O)[C@H]3CC(=O)N(C)[C@@H]3c3cccnc3)c(=O)c2=O)C1 [Example 164, (2S,3S)-N-(14-((2-((4-(((1R,2S,5R)-5-(Isopropyl(methyl)amino)-2-((S)-2-oxo-3-((6-(trifluoromethyl)quinazolin-4-yl)amino)pyrrolidin-1-yl)cyclohexyl)amino)-4-oxobutyl)amino)-3,4-dioxocyclobut-1-en-1-yl)amino)-3,6,9,12-tetraoxatetradecyl)-1-methyl-5-oxo-2-(pyridin-3-yl)pyrrolidine-3-carboxamide] | 1.35 nM
5 | 9.06 | CC(C)N(C)[C@@H]1CC[C@H](N2CC[C@H](Nc3ncnc4ccc(C(F)(F)F)cc34)C2=O)[C@H](NC(=O)CCOCCOCCOCCNc2c(NCCNC(=O)[C@H]3CC(=O)N(C)[C@@H]3c3cccnc3)c(=O)c2=O)C1 [Example 168, (2S,3S)-N-(2-((2-((2-(2-(2-(3-(((1R,2S,5R)-5-(Isopropyl(methyl)amino)-2-((S)-2-oxo-3-((6-(trifluoromethyl)quinazolin-4-yl)amino)pyrrolidin-1-yl)cyclohexyl)amino)-3-oxopropoxy)ethoxy)ethoxy)ethyl)amino)-3,4-dioxocyclobut-1-en-1-yl)amino)ethyl)-1-methyl-5-oxo-2-(pyridin-3-yl)pyrrolidine-3-carboxamide] | 0.793 nM
6 | 8.7865 | CC(C)N(C)[C@@H]1CC[C@H](N2CC[C@H](Nc3ncnc4ccc(C(F)(F)F)cc34)C2=O)[C@H](NC(=O)[C@H]2CC[C@@H](NC(=O)COCCOCCNC(=O)CNC(=O)[C@H]3CC(=O)N(C)[C@@H]3c3cccnc3)CC2)C1 [Example 171, (2S,3S)-N-(2-((2-(2-(2-(((1S,4s)-4-(((1R,2S,5R)-5-(Isopropyl(methyl)amino)-2-((S)-2-oxo-3-((6-(trifluoromethyl)quinazolin-4-yl)amino)pyrrolidin-1-yl)cyclohexyl)carbamoyl)cyclohexyl)amino)-2-oxoethoxy)ethoxy)ethyl)amino)-2-oxoethyl)-1-methyl-5-oxo-2-(pyridin-3-yl)pyrrolidine-3-carboxamide] | 0.802 nM
7 | 9.1415 | CC(C)N(C)[C@@H]1CC[C@H](N2CC[C@H](Nc3ncnc4ccc(C(F)(F)F)cc34)C2=O)[C@H](NC(=O)CCCC(=O)NCCCOCCCNC(=O)CCCNC(=O)[C@H]2CC(=O)N(C)[C@@H]2c2cccnc2)C1 [Example 173, N^1-((1R,2S,5R)-5-(Isopropyl(methyl)amino)-2-((S)-2-oxo-3-((6-(trifluoromethyl)quinazolin-4-yl)amino)pyrrolidin-1-yl)cyclohexyl)-N5-(3-(3-(4-((2S,3S)-1-methyl-5-oxo-2-(pyridin-3-yl)pyrrolidine-3-carboxamido)butanamido)propoxy)propyl)glutaramide] | 0.794 nM
8 | 9.244 | CC(C)N(C)[C@@H]1CC[C@H](N2CC[C@H](Nc3ncnc4ccc(C(F)(F)F)cc34)C2=O)[C@H](NC(=O)[C@H]2CC[C@@H](NC(=O)CCOCCNC(=O)COCCCNC(=O)[C@H]3CC(=O)N(C)[C@@H]3c3cccnc3)CC2)C1 [Example 175, (2S,3S)-N-(3-(2-((2-(3-(((1 S,4s)-4-(((1R,2S,5R)-5-(Isopropyl(methyl)amino)-2-((S)-2-oxo-3-((6-(trifluoromethyl)quinazolin-4-yl)amino)pyrrolidin-1-yl)cyclohexyl)carbamoyl)cyclohexyl)amino)-3-oxopropoxy)ethyl)amino)-2-oxoethoxy)propyl)-1-methyl-5-oxo-2-(pyridin-3-yl)pyrrolidine-3-carboxamide] | 0.794 nM and 0.398 nM
9 | 9.24 | CC(C)N(C)[C@@H]1CC[C@H](N2CC[C@H](Nc3ncnc4ccc(C(F)(F)F)cc34)C2=O)[C@H](NC(=O)CCCC(=O)N[C@H]2CC[C@@H](CNC(=O)CCOCCNC(=O)[C@H]3CC(=O)N(C)[C@@H]3c3cccnc3)CC2)C1 [Example 179, N^1-((1R,2S,5R)-5-(isopropyl(methyl)amino)-2-((S)-2-oxo-3-((6-(trifluoromethyl)quinazolin-4-yl)amino)pyrrolidin-1-yl)cyclohexyl)-N^5-((1R,4S)-4-((3-(2-((2S,3S)-1-methyl-5-oxo-2-(pyridin-3-yl)pyrrolidine-3-carboxamido)ethoxy)propanamido)methyl)cyclohexyl)glutaramide] | 0.724 nM
10 | 9.1645 | CC(C)N(C)[C@@H]1CC[C@H](N2CC[C@H](Nc3ncnc4ccc(C(F)(F)F)cc34)C2=O)[C@H](NC(=O)COCCNC(=O)CCNC(=O)CCOCCOCCNC(=O)[C@H]2CC(=O)N(C)[C@@H]2c2cccnc2)C1 [Example 181, (2S,3S)-N-(1-(((1R,2S,5R)-5-(Isopropyl(methyl)amino)-2-((S)-2-oxo-3-((6-(trifluoromethyl)quinazolin-4-yl)amino)pyrrolidin-1-yl)cyclohexyl)amino)-1,7,11-trioxo-3,14,17-trioxa-6,10-diazanonadecan-19-yl)-1-methyl-5-oxo-2-(pyridin-3-yl)pyrrolidine-3-carboxamide] | 0.675 nM
11 | 9.3835 | CC(C)N(C)[C@@H]1CC[C@H](N2CC[C@H](Nc3ncnc4ccc(C(F)(F)F)cc34)C2=O)[C@H](NC(=O)[C@H]2CC[C@@H](NC(=O)CCOCCNC(=O)CCCCNC(=O)[C@H]3CC(=O)N(C)[C@@H]3c3cccnc3)CC2)C1 [Example 198, (2S,3S)-N-(5-((2-(3-(((1S,4s)-4-(((1R,2S,5R)-5-(Isopropyl(methyl)amino)-2-((S)-2-oxo-3-((6-(trifluoromethyl)quinazolin-4-yl)amino)pyrrolidin-1-yl)cyclohexyl)carbamoyl)cyclohexyl)amino)-3-oxopropoxy)ethyl)amino)-5-oxopentyl)-1-methyl-5-oxo-2-(pyridin-3-yl)pyrrolidine-3-carboxamide] | 0.398 nM and 0.316 nM
12 | 9.111 | CC(C)N(C)[C@@H]1CC[C@H](N2CC[C@H](Nc3ncnc4ccc(C(F)(F)F)cc34)C2=O)[C@H](NC(=O)[C@H]2CC[C@@H](NC(=O)COCCNC(=O)CCOCCNC(=O)[C@H]3CC(=O)N(C)[C@@H]3c3cccnc3)CC2)C1 [compound 152] | 1.4 nM
13 | 9.0085 | CC(C)N(C)[C@@H]1CC[C@H](N2CC[C@H](Nc3ncnc4ccc(C(F)(F)F)cc34)C2=O)[C@H](NC(=O)CCOCCOCCOCCNc2c(NCCCNC(=O)[C@H]3CC(=O)N(C)[C@@H]3c3cccnc3)c(=O)c2=O)C1 [compound 169] | 1.05 nM
